In ChEMBL document CHEMBL3868604, “Optimization and bioevaluation of Cdc37-derived peptides: An insight into Hsp90-Cdc37 protein-protein interaction modulators” (Bioorg Med Chem, 2017) one finds inhibition and Kd data, which are given here for six compounds.

As usually defined, the inhibition is the percentage by which the read-out fell short of the control. By Kd is commonly meant the concentration at which binding is half-saturated. A high value points to a looser complex.

In assay [1] the target is T1, Heat shock protein HSP90 (Homo sapiens, UniProt P07900+P08238). The assay is described as follows: Inhibition of FITC-geldanamycin binding to N-terminal GST-tagged Hsp90 (unknown origin) expressed in Escherichia coli at 100 uM measured after 15 mins by fluorescence polarization assay relative to control. (In general: Fluorescence polarisation rises when a labelled molecule tumbles more slowly, as on binding a larger partner.)

Assay [2] deals with T1, Heat shock protein HSP90. The assay is described as follows: Binding affinity to N-terminal GST-tagged Hsp90 (unknown origin) expressed in Escherichia coli by ITC method.
Another assay is filed under the species Homo sapiens. Description: Inhibition of N-terminal GST-tagged Hsp90 (unknown origin)-His-tagged Cdc37 middle domain (unknown origin) interaction expressed in Escherichia coli at 50 uM preincubated for 30 mins with GST-tagged Hsp90 (unknown origin) followed by addition of His-tagged Cdc37 middle domain (unknown origin) measured after 1 hr by GST-pulldown assay.

Activity calls are given as the source filed them. No cut-off for these calls is given here.

On Heat shock protein HSP90 [1], `CC(C)c1cc(C(=O)N2Cc3ccc(CN4CCN(C)CC4)cc3C2)c(O)cc1O` came in with an inhibition of 99.8%.

On Heat shock protein HSP90 [1], Ac-HFGMLRR-NH2 returned an inhibition of less than 10%. This compound had a Kd at Heat shock protein HSP90 [2] of 5.99 µM. In addition, the inhibition entry in the assay listed under Homo sapiens was “Active”.

As to Ac-KHFGMLRR-NH2, at Heat shock protein HSP90 [1], the inhibition is less than 10%. This compound also showed a Kd at Heat shock protein HSP90 [2] of 7.41 µM.

The compound Ac-KHFGMLRRW-NH2 had an inhibition on Heat shock protein HSP90 [1] of less than 10%. The compound also gave a dissociation constant Kd on Heat shock protein HSP90 [2] of 10.07 µM.

Take Ac-KHFGMLRRWD-NH2: on Heat shock protein HSP90 [1], the inhibition is less than 10%. For the same compound, the Kd on Heat shock protein HSP90 [2] was 21 µM.

Ac-KHFGMLRRWDD-NH2 showed an inhibition at Heat shock protein HSP90 [1] of less than 10%. This compound also showed a dissociation constant (Kd) on Heat shock protein HSP90 [2] of 6.9 µM.
